Measurements as given in patent US7645603B2, “Cells having cardiac glycoside resistance” (Avaris AB, priority 2003, dated 2010).

Assays:
[1] = test system: HeLa cells; test: Ouabain toxicity assay, transiently transfected HeLa cells, cell viability; format: cell-based, human; conditions: 10 μM ouabain
Method: HeLa cells (ATCC, Manassas, Va.) were cultured in DMEM Glutamax with 10% heat-inactivated fetal bovine serum (FBS). For transfections, Fugene 6 reagent (Roche Boehringer Mannheim, Germany) was used according to manufacturer's description. Briefly, 2 μg of plasmid DNA per 10^5 cells were complexed with 5 μl of the reagent in a 100 μl volume of cell culture medium and added to cells after 15 min of incubation. After 24 h, ouabain was added to each well to a final concentration of 10 μM. Cell viability was documented following 24 h incubation.
(§1) For transfections, Fugene 6 reagent (Roche Boeringer Mannheim, Germany) was used according to the manufacturer's instructions. Briefly, 2 μg of plasmid DNA per 10^5 cells were complexed with 5 μl of the reagent in a 100 μl volume of cell culture medium DMEM Glutamax and added to cells after 15 min of incubation. Ouabain (Sigma, St. Louis, Mo., USA) was dissolved in DMEM as a stock solution of 10 mM. For selection experiments 10-500 μM was used. Ouabain was added to the cells at 24 h after transfection. At 48 hours post transfection the cells were trypsinized and transferred to ouabain-free medium. Cell survival was quantified spectrophoto-metrically using the WST-1 cell proliferation reagent (Roche) according to the manufacturer's instructions.

[2] = test system: HeLa cells; test: Ouabain dose response assay in transfected HeLa cells, WST-1 cell proliferation reagent; format: cell-based, human; conditions: 10-500 μM ouabain, 24 hours
Method: as §1

[3] = test system: COS-7 cells; test: Ouabain toxicity assay, transiently transfected COS-7 cells, cell viability; format: cell-based; conditions: wild type COS-7, 10 μM ouabain
Method: COS-7 cells (ATCC, Manassas, Va.) were cultured and transfected as above. After 48 h incubation in 10 μM ouabain, the cells were washed twice in PBS (Gibco) and incubated for 15 min in 0.025% porcine trypsine in saline (Sigma). The trypsin was inactivated by FBS addition. The cells were re-incubated in 10 μM ouabain. Cell viability was documented following 48 h incubation.

C[C@@H]1O[C@@H](O[C@H]2C[C@@H](O)[C@]3(CO)[C@H]4[C@H](O)C[C@]5(C)[C@@H](C6=CC(=O)OC6)CC[C@]5(O)[C@@H]4CC[C@]3(O)C2)[C@H](O)[C@H](O)[C@H]1O [ouabain]
ouabain induced cell death of wild type cells [1]: induces cell death
effect of ouabain on control and un-transfected cells (WST-1) [2]: eliminated
ouabain induced cell death of wild type cells [3]: induces cell death
